Source: US9241976B2, “Use of HDL-related molecules to treat and prevent proinflammatory conditions” (THE REGENTS OF THE UNIVERSITY OF CALIFORNIA, priority 2011, dated 2016)
Square brackets hold non-standard residues; d marks the D form. Ends that are not written are not given here. Peptide text beside a SMILES is read from it. * marks the point of attachment. Cbz = O=C(OCc1ccccc1)*; Aib = CC(C)(N)C(=O)O

Columns and labels:
[1] = test system: NIH3T3 cells; assay: NIH3T3 cell viability, MTS assay; format: cell-based; conditions: 10 μg/mL, 48 hours
Description: CT26 and NIH3T3 cells (2,000 cells per well) were first cultured in complete medium in 96-well culture plates, and 24 hours later the medium was replaced with serum-free medium. […] Cells were incubated for an additional 48 hours and assayed for viability using MTS assays kit (Promega) according to the manufacturer's protocol.

[2] = test system: CT26 cells; assay: Tumor-load study: CT26 flank tumors in BALB/c mice; format: in vivo, mouse; conditions: for flank tumor volume / flank tumor weight: Example 3, 10 mg/kg subcutaneous daily for 15 days
Description: (§1) 6-week-old BALB/c female mice were given a 100 μL subcutaneous injection of 1×10^6 CT26 cells prepared as a single cell suspension in PBS, and the mice were treated with bHDLor BHDLat 10 mg/kg administered subcutaneously (SQ) daily for 15 days. The mice were sacrificed and tumor weights were measured.
6-week-old BALB/c female mice were given a 100 μl subcutaneous injection of 1×10^6 CT26 cells prepared as a single cell suspension in PBS, treated with peptide at 10 mg/kg by SQ daily for 15 days.
The mice were killed and tumor weights were measured. The tumor volumes were measured using the formula V=½ (L×W^2).
as §1, with “Six-week-old” for “6-week-old”, “[…]” for “μL”, “sc-4F or L-4F at” for “bHDLor BHDLat”, “subcutaneously” for “subcutaneously (SQ)”

[3] = test system: CT26 cells; assay: CT26 cell viability, MTS assay; conditions: for Cell viability reduced by, compared with control: Example 3, CT26 cells, 10 μg/ml, 48 hours; for CT26 cell viability vs vehicle-treated controls: Example 6, MTS assay, within 48 hours of treatment
Description: CT26 cell line derived from N-nitroso-N-methyl urethane-induced mouse colon carcinoma of BALB/c origin was purchased from the American Type Culture Collection (ATCC). CT26 cells (2,000 cells per well) were first cultured in complete medium in 96-well culture plates, and 24 hours later the medium was replaced with serum free medium. Following an overnight incubation, the cells were either treated with vehicle (control), or treated with 10 μg/mL of either bHDL. The bHDL were dissolved in H2O. Cells were incubated for an additional 48 hours and assayed for viability using the MTS assays kit (Promega) according to the manufacturer's protocol.
CT26 cell line derived from N-nitroso-N-methyl urethane-induced mouse colon carcinoma of BALB/c origin was purchased from the American Type Culture Collection. CT26 cells (2,000 cells per well) were first cultured in complete medium in 96-well culture plates, and 24 hours later the medium was replaced with serum-free medium. Following an overnight incubation, the cells were either treated with vehicle (control) or treated with 10 mg/mL of either L-4F or G* peptide. The peptides were dissolved in H2O. Cells were incubated for an additional 48 hours and assayed for viability using the MTS assay kit (Promega) according to the manufacturer's protocol.

[4] = test system: HIF-1α; assay: HIF-1α protein expression in human ovarian cancer cell lines, Western blot; format: cell-based; conditions: OV2008 cells; MG-132 10 μM 3 h, L-4F 10 μg/ml 1 h, insulin 200 nM 4 h
Description: OV2008 cells were cultured in RPMI 1640 media with 10% fetal bovine serum, penicillin (100 U/ml), streptomycin (100 μg/ml), 1× minimal essential medium nonessential amino acid solution (Invitrogen, Carlsbad, Calif.), and insulin (0.25 U/ml) (Invitrogen). CAOV-3 cells were cultured in complete media consisting of Dulbecco's modified Eagle's medium with high glucose and L-glutamine (2 mM), 10% fetal bovine serum, penicillin (100 U/ml), streptomycin (100 μg/ml), and insulin (0.02 U/ml). To create hypoxic conditions, cells were transferred to a hypoxic chamber (model 3130; Thermo Fisher Scientific, Waltham, Mass.), where they were maintained at 37° C. in an atmosphere containing 5% CO2, 1% O2, and 94% N2. L-4F (the peptide Ac-D-W-F-K-A-F-Y-D-K-V-A-E-K-F-K-E-A-F-NH2 (SEQ ID NO: 12) synthesized from all L amino acids) was dissolved in water at 1 mg/ml (freshly prepared every time) and used between 1 and 10 μg/ml. L-5F was synthesized by Peptisyntha Inc. (Torrance, Calif.), dissolved in ABCT buffer (50 mM ammonium bicarbonate, pH 7.0, containing 0.1 mg/ml Tween 20) at 1 mg/ml, and diluted to the required concentrations before use. Cobalt chloride (CoCl2), insulin, cycloheximide (CHX), and N-(benzyloxycarbonyl)leucinylleucinylleucinal-Z-Leu-Leu-Leu-al (MG-132) were purchased from Sigma-Aldrich (St. Louis, Mo.). LPA (Avanti Polar Lipids, Alabaster, Ala.) in chloroform was dried as recommended by the manufacturer, dissolved in ethanol at a concentration of 20 mM as a stock solution, and diluted to the required concentrations in the corresponding cell culture media before use.
Western blot analyses were performed as described previously (Gao et al., 2011). In brief, cell lysates were collected in a lysis buffer containing 0.1 MNaCl, 5 mM EDTA, 50 μM sodium orthovanadate, 1% Triton X-100, and protease inhibitor tablet (Roche Diagnostics, Indianapolis, Ind.) in 50 mM Tris buffer, pH 7.5, loaded onto 4 to 12% Bis-Tris gel (Invitrogen), transferred to polyvinylidene difluoride membrane, and incubated with the appropriate antibodies. Anti-pThr^202/Tyr^204-Erk, anti-Erk, anti-pThr^389-p70 S6 kinase, anti-p70 S6 kinase, anti-pSer^473-Akt, and anti-Akt antibodies were purchased from Cell Signaling Technology (Danvers, Mass.); mouse anti-human HIF-1α antibody was purchased from BD Pharmingen (San Diego, Calif.); rabbit anti-mouse HIF-1α antibody was purchased from Abcam Inc. (Cambridge, Mass.); and anti-GAPDH antibody was purchased from Santa Cruz Biotechnology Inc. (Santa Cruz, Calif.).

[5] = test system: CT26 cells; assay: Pulmonary metastasis in vivo: CT26 lung tumors in BALB/c mice; set-up: species or system mouse; conditions: CT26 via tail vein
Description: BALB/c mice were intravenously injected with 2×10^4 CT26 cells in 100 μL of PBS via tail vein injection and the mice were treated with bHDL at 10 mg/kg/day administered SQ for 3 weeks; or treated with bHDL at 100 mg/kg/day administered in a chow diet for 3 weeks. After 3 weeks treatment, the mice were sacrificed; lungs were harvested, weighed and fixed with Bouin's solution (Sigma). Tumor nodules on the lung surface were counted.
BALB/c mice were intravenously injected with 2×10^4 CT26 cells in […] of PBS via tail vein injection and the mice were treated with L-4F or sc-4F at 10 mg/kg/d administered subcutaneously for 3 weeks, or treated with sc-4F or L-4F or G* peptide at 100 mg/kg/d administered in a chow diet for 3 weeks. After 3 weeks treatment, the mice were sacrificed; lungs were harvested, weighed, and fixed with Bouin solution (Sigma). Tumor nodules on the lung surface were counted.

[6] = test system: APC^min/+ mice; assay: APC^min/+ mice study, intestinal tumors; format: in vivo; conditions: C57BL/6J-APC^min/+ mice; 100 mg/kg/d in mouse chow for 8 weeks
Description: (§2) 6-week-old APC^Min/+ male mice on a C57BL/6J background were treated with bHDL 100 mg/kg/day administered in a chow diet. After 8 weeks treatment, mice were sacrificed. The entire intestine was immediately removed, fixed in formalin and 70% ethanol. The intestine was opened and examined under a dissecting microscope to count and measure the tumors.
as §2, with “Six-week-oldAPC^min/+” for “6-week-old APC^Min/+”, “L-4F or sc-4F at” for “bHDL”, “mg/kg/d” for “mg/kg/day”

[7] = test system: NIH3T3 cells; assay: UV-induced cell death, NIH3T3 cell viability; format: cell-based; conditions: pre-treatment 10 μg/ml for 24 hrs; UV 5, 10, 20 mJ/cm^2
Description: NIH 3T3 ([…]) ells were seeded in 96 well plates in 4 separate plates. After 24 hrs, cells were starved overnight. Apo A-l was used at a concentration (10 μg/ml) to treat the cells for 24 hrs. After treatment of cells were washed with PBS. One plate was used as a control without UV treatment. The remaining three plates were used for UV treatment at 5, 10, and 20 mJ/cm^2. Following UV treatment, cells were given complete media and were cultured for another 24 hrs. Cell viability was measured for all the plates as described previously (Ganapathy E, et al., 2011, D-4F, an apoA-1 mimetic peptide inhibits proliferation and tumorigenicity of epithelial ovarian cancer cells by upregulating the antioxidant enzyme MnSOD, Int J Cancer 130:1071-1081).

[8] = 10 mg/kg/d subcutaneously for 3 weeks
[9] = 100 mg/kg/d in chow diet for 3 weeks

## CC(=O)N[C@@H](CC(C)C)C(=O)N[C@@H](CCCNC(=N)N)C(=O)N[C@@H](CCCCN)C(=O)N[C@@H](CC(C)C)C(=O)N[C@@H](CCCNC(=N)N)C(=O)N[C@@H](CCCCN)C(=O)N[C@@H](CCCNC(=N)N)C(=O)N[C@@H](CC(C)C)C(=O)N[C@@H](CC(C)C)C(=O)N[C@@H](CCCNC(=N)N)C(=O)N[C@@H](CC(=O)O)C(=O)N[C@@H](Cc1c[nH]c2ccccc12)C(=O)N[C@@H](CC(C)C)C(=O)N[C@@H](CCCCN)C(=O)N[C@@H](C)C(=O)N[C@@H](Cc1ccccc1)C(=O)N[C@@H](Cc1ccc(O)cc1)C(=O)N[C@@H](CC(=O)O)C(=O)N[C@@H](CCCCN)C(=O)N[C@H](C(=O)NC(C)(C)C(=O)N[C@@H](CCC(=O)O)C(=O)N[C@@H](CCCCN)C(=O)N[C@@H](CC(C)C)C(=O)N[C@@H](CCCCN)C(=O)N[C@@H](CCC(=O)O)C(=O)NC(C)(C)C(=O)N[C@@H](Cc1ccccc1)C(N)=O)C(C)C [28AA-2, LRKLRKRLLRDWLKAFYDKV-Aib-E-K-L-K-E-Aib-F] (HELM PEPTIDE1{[ac].L.R.K.L.R.K.R.L.L.R.D.W.L.K.A.F.Y.D.K.V.[Aib].E.K.L.K.E.[Aib].F.[am]}$$$$V2.0; N-terminus and C-terminus assumed)
[1]
  NIH3T3 cell viability: not affected

## CC(=O)N[C@@H](CC(=O)O)C(=O)N[C@@H](Cc1c[nH]c2ccccc12)C(=O)N[C@@H](Cc1ccccc1)C(=O)N[C@@H](CCCCN)C(=O)N[C@@H](C)C(=O)N[C@@H](Cc1ccccc1)C(=O)N[C@@H](Cc1ccc(O)cc1)C(=O)N[C@@H](CC(=O)O)C(=O)N[C@@H](CCCCN)C(=O)N[C@H](C(=O)NC(C)(C)C(=O)N[C@@H](CCC(=O)O)C(=O)N[C@@H](CCCCN)C(=O)N[C@@H](Cc1ccccc1)C(=O)N[C@@H](CCCCN)C(=O)N[C@@H](CCC(=O)O)C(=O)NC(C)(C)C(=O)N[C@@H](Cc1ccccc1)C(N)=O)C(C)C [L-4F2, Ac-D-W-F-K-A-F-Y-D-K-V-Aib-E-K-F-K-E-Aib-F-NH2] (HELM PEPTIDE1{[ac].D.W.F.K.A.F.Y.D.K.V.[Aib].E.K.F.K.E.[Aib].F.[am]}$$$$V2.0)
[1]
  NIH3T3 cell viability: not affected
[2]
  flank tumor volume: 197 mm^3
  flank tumor weight: 118 mg
[3]
  Cell viability reduced by, compared with control: more than 30%
  CT26 cell viability vs vehicle-treated controls: reduced cell viability

## CC(C)C[C@@H](C=O)NC(=O)[C@H](CC(C)C)NC(=O)[C@H](CC(C)C)NC(=O)OCc1ccccc1 [MG-132, N-(benzyloxycarbonyl)leucinylleucinylleucinal-Z-Leu-Leu-Leu-al, reference compound] (Cbz-Leu-Leu-Leu-aldehyde)
[4]
  effect on the L-4F inhibition of insulin-mediated HIF-1α expression: led to a reversal of the inhibitory effect of L-4F

## Ac-D-W-F-A-K-D-Y-F-K-K-A-F-V-E-E-F-A-K-NH2 (Ac-DWFAKDYFKKAFVEEFAK-NH2) [sc-4F, reference compound]
[2]
  flank tumor volume: 555 mm^3
  flank tumor weight: 273 mg
[2]; Example 5, 10 mg/kg subcutaneously daily for 15 days
  flank tumor weights: 778 mg
[5]; [8]
  lung weights: 280 mg
  tumor numbers counted on the lung surface: 33
[5]; [9]
  lung weights: 296 mg
  tumor numbers on the lung surface: 21
[6]
  numbers of tumors of diameter 1-3 mm: 56.5
  numbers of tumors of diameter >3 mm: 12.8
  total tumor numbers in the intestinal tract, percent of the control: 100%

## Ac-LRKLRKRLLRDWLKAFYDKVAEKLKEAF-NH2 [28AA, LRKLRKRLLRDWLKAFYDKVAEKLKEAF, reference compound]
[1]
  NIH3T3 cell viability: not affected
[2]
  flank tumor weight: 188 mg
[3]
  Cell viability reduced by, compared with control: 70%

## ApoA-II: a protein that is also associated with HDL like apoA-I [reference compound]
[7]
  UV-induced cell death (cell viability): did not prevent UV-induced cell death

## ApoA-l: full-length and unmodified ApoA-I, typically human, a 28.2 kDa protein of 244 amino acids
[7]
  UV-induced cell death (cell viability): protects NIH3T3 cells from UV-induced cell death

## K4,15-4F2: SEQ ID NO: 28; K4,15-4F further modified with Aib substitution for alanine at positions 11 and 17 (DWFRAFYDKV[Aib]EKFRE[Aib]F)
[3]
  CT26 cell viability vs vehicle-treated controls: reduced cell viability

## K4,15-4F: SEQ ID NO: 27; based on K14,15 peptides of Nayyar et al., lysines substituted with arginines at residues 4 and 15 (DWFRAFYDKVAEKFREAF; synthetic peptide mimetic)
[3]
  CT26 cell viability vs vehicle-treated controls: reduced cell viability

## LRKLRKRLLR LVGRQLEEFL (LRKLRKRLLRLVGRQLEEFL; synthetic peptide mimetic) [20AA]
[3]
  CT26 cell viability vs vehicle-treated controls: reduced cell viability
